The values below come from patent publication US20080146524A1, “Selective inhibitors of neurotensin degrading enzymes” (Solvay Pharmaceuticals B.V., priority 2006, published 2008).

Data set [1] concerns the target Thimet oligopeptidase EC 3.4.24.15 (UniProt P24155). The experiment in a line: enzyme inhibition of Thimet oligopeptidase EC 3.4.24.15 (published methods, Dauch 1991a,b). It is filed as biochemical.
In another data set the target is Neurolysine EC 3.4.24.16 (UniProt P42676). It is filed as biochemical.
Data set [2] is described as follows: determination of chemical stability, storage in glass vials, LC-MS. It is filed as physicochemical. The note with it: for relative stability: stored in glass vials, LC-MS; for stability on storage (in words): over 10 days (240 hr). The protocol: Compound 36 and its phosphinamide analog phosphodiepril (FR 2 654 430, synthesized as disclosed therein) were stored separately in glass vials. At different time intervals samples were taken and analyzed by LC-MS. Samples were dissolved in DMSO (0.1 mg/ml) and diluted by a factor 100 in the first LC eluent (A). At fixed time points an amount of 100 μl was taken from the formulations. These time points were 0, 3, 72, and 240 hours. All samples were measured in the positive mode, with an ESI source on the LC-MS.
Eluents were composed of water (H2O), acetonitril (ACN), methanol (MeOH) and ammonium-acetate (NH4Ac). The eluent is mixed out of two different bottles with two different compositions. • Eluent A consists of H2O/ACN/MeOH 800/100/100+0.77 g/l NH4Ac. • Eluent B consists of H2O/ACN/MeOH 100/800/100+0.77 g/l NH4Ac.
The gradient in the pump was set to:
Columns: Chromsep Guard Column SS 10×2 mm (CP28141) and Inertsil 5 ODS-3 100×3.0 mm (CP22234). Column temperature: 25° C.
Injection: well plate temperature: 25° C. • Injection volume: 20 μl • Splitter (post column): 1:4 • Run time: 9.50 minutes.
Detection MS-MS:ESI (pos/neg) spray 3.0 kV • Fragmentor 70 • Gain 2.0 • Dwell 700 msec • Nebulizer pressure 42 psig • Drying gas temperature 325° C. • Capillary temperature 325° C.
Compound 36 and its phosphinamide analog phosphodiepril (FR 2 654 430, synthesized as disclosed therein) were stored separately in glass vials. At different time intervals samples were taken and analyzed by LC-MS.
When calculating the relative stability it was assumed that the compounds were completely dissolved during formulation. Therefore, the relative stability is 100% at the beginning (0 hour measurement). The following time measurements are recalculated from that measurement.

The test system of data set [3] is Corynebacterium rathayii collagenase. The note with it: cited from earlier work.
A further data set has as its target endopeptidase 24.16 (Rattus norvegicus, UniProt P42676). The note with it: cited from earlier work.
The target in another data set is endopeptidase 24.15 (Rattus norvegicus, UniProt P24155). The following applies: at concentrations as high as 5 mM; cited from earlier work.
Data set [4] can be described thus: in vivo experiments with phosphodiepril. From the text:
Thus, even in its pure form, the N-analog is not stable. Due to the rapid hydrolysis of the phosphonamide bond, enzyme inhibition activity of this compound can only be determined with difficulty.

[5] abbreviates: Time 0 hr (set to 100% at the beginning).
Where [6] appears, read: Time 240 hr, relative to 0 hour.

pKi: −log10 of the molar value. Residues, ends and D or L forms follow the SMILES beside them.

endopeptidase 24.15, sequence (P24155 whole entry): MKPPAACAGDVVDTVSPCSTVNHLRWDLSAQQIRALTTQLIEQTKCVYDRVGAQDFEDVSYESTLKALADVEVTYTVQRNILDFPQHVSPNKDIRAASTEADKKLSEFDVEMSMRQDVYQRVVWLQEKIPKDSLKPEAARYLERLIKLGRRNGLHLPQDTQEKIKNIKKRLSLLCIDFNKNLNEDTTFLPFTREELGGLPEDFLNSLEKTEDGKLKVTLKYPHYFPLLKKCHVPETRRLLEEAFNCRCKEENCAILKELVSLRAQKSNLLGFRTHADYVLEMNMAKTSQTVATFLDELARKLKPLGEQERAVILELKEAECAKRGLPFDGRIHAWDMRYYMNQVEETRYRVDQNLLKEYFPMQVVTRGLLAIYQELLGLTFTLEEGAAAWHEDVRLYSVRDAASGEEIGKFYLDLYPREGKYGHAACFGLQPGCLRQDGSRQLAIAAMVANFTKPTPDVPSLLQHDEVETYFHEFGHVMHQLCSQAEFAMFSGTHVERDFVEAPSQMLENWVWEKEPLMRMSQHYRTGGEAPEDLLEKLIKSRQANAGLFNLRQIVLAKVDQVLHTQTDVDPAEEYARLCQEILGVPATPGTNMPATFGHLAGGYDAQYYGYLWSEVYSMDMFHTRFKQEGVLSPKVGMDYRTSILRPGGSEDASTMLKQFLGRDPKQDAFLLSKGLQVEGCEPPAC
endopeptidase 24.16, sequence (P42676 38-704): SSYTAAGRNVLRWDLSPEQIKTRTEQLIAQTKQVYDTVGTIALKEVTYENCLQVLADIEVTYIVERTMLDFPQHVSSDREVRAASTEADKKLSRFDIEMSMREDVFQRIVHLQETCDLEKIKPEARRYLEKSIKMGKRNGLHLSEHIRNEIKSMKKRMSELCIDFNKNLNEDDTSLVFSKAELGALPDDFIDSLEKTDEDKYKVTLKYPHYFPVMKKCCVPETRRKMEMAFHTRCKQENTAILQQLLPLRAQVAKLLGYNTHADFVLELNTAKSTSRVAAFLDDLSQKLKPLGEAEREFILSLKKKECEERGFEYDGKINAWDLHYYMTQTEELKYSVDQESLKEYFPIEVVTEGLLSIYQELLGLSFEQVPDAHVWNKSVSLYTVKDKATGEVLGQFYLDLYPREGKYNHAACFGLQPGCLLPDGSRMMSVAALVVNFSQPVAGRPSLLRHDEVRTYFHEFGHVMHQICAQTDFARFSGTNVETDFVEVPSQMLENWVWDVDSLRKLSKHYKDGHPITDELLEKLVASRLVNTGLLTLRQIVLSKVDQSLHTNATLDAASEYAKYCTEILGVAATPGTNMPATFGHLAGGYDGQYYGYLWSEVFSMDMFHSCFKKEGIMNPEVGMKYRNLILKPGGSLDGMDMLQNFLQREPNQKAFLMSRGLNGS

As for `CCCCC(NC(=O)C(NC(=O)CCP(=O)(O)CCCCc1ccccc1)C(C)C)C(=O)O` (stereo not drawn) [Compound 6], the “enzyme inhibition EC 3.4.24.15 pIC50” value in data set [1] was 6.8. On Neurolysine EC 3.4.24.16, the “enzyme inhibition EC 3.4.24.16 pIC50” value is recorded as 6.7.

Take `CC(C)C(NC(=O)CCP(=O)(O)CCCCc1ccccc1)C(=O)NC(Cc1ccccc1)C(=O)O` (stereo not drawn) [Compound 7]: the “enzyme inhibition EC 3.4.24.15 pIC50” value in data set [1] is reported as 6.2. The “enzyme inhibition EC 3.4.24.16 pIC50” value on Neurolysine EC 3.4.24.16 is listed as 6.1.

As for `CCC(C)C(NC(=O)CCP(=O)(O)CCCCc1ccccc1)C(=O)NC(C(=O)O)C(C)C` (stereo not drawn) [Compound 8], in data set [1], the “enzyme inhibition EC 3.4.24.15 pIC50” value is 5.8. Besides, the “enzyme inhibition EC 3.4.24.16 pIC50” value on Neurolysine EC 3.4.24.16 was 5.4.

`CCC(C)C(NC(=O)CCP(=O)(O)CCCCc1ccccc1)C(=O)NC(CC(C)C)C(=O)O` (stereo not drawn) [Compound 9]: the “enzyme inhibition EC 3.4.24.15 pIC50” value in data set [1] amounted to 6.3. For the same compound, the “enzyme inhibition EC 3.4.24.16 pIC50” value on Neurolysine EC 3.4.24.16 came out at 5.6.

Turning to `CCCCC(NC(=O)C(C)N(C)C(=O)CCP(=O)(O)CCCCc1ccccc1)C(=O)O` (stereo not drawn) [Compound 11], in data set [1], the “enzyme inhibition EC 3.4.24.15 pIC50” value was determined as 6.2. Moreover, the “enzyme inhibition EC 3.4.24.16 pIC50” value on Neurolysine EC 3.4.24.16 stood at 6.1.

Turning to `CCC(NC(=O)C(Cc1ccccc1)NC(=O)CCP(=O)(O)Cc1ccc2ccccc2c1)C(=O)O` (stereo not drawn) [Compound 25], the “enzyme inhibition EC 3.4.24.15 pIC50” value in data set [1] was 5.7. For the same compound, on Neurolysine EC 3.4.24.16, the “enzyme inhibition EC 3.4.24.16 pIC50” value is listed as 5.9.

As for `CCCCC(NC(=O)C(NC(=O)CCP(=O)(O)CCc1cccc2ccccc12)C(C)C)C(=O)O` (stereo not drawn) [Compound 26], the “enzyme inhibition EC 3.4.24.15 pIC50” value in data set [1] is listed as 6.5. For the same compound, at Neurolysine EC 3.4.24.16, the “enzyme inhibition EC 3.4.24.16 pIC50” value amounted to 6.3.

On to `CC(C)C(NC(=O)CCP(=O)(O)CCc1cccc2ccccc12)C(=O)NC(Cc1ccccc1)C(=O)O` (stereo not drawn) [Compound 27], for which the “enzyme inhibition EC 3.4.24.15 pIC50” value in data set [1] turned out to be 6.2. Further, the “enzyme inhibition EC 3.4.24.16 pIC50” value on Neurolysine EC 3.4.24.16 is listed as 6.1.

For the compound `CCC(C)C(NC(=O)CCP(=O)(O)CCc1cccc2ccccc12)C(=O)NC(C(=O)O)C(C)C` (stereo not drawn) [Compound 28], in data set [1], the “enzyme inhibition EC 3.4.24.15 pIC50” value is given as 6.3. Moreover, the “enzyme inhibition EC 3.4.24.16 pIC50” value on Neurolysine EC 3.4.24.16 amounted to 5.8.

Consider `CCC(C)C(NC(=O)CCP(=O)(O)CCc1ccc2ccccc2c1)C(=O)NC(CC(C)C)C(=O)O` (stereo not drawn) [Compound 29], for which the “enzyme inhibition EC 3.4.24.15 pIC50” value in data set [1] was 7.0. The “enzyme inhibition EC 3.4.24.16 pIC50” value at Neurolysine EC 3.4.24.16 worked out at 6.6.

For the compound `CCC(C)C(NC(=O)CCP(=O)(O)CCc1cccc2ccccc12)C(=O)NC(CC(C)C)C(=O)O` (stereo not drawn) [Compound 30], the “enzyme inhibition EC 3.4.24.15 pIC50” value in data set [1] is recorded as 5.8. Also, the “enzyme inhibition EC 3.4.24.16 pIC50” value at Neurolysine EC 3.4.24.16 was 5.2.

Consider `CCCCC(NC(=O)C(C)N(C)C(=O)CCP(=O)(O)CCc1ccc2ccccc2c1)C(=O)O` (stereo not drawn) [Compound 32], for which the “enzyme inhibition EC 3.4.24.15 pIC50” value in data set [1] is 7.0.

`CCCC[C@H](NC(=O)[C@@H]1CCCN1C(=O)CCP(=O)(O)CCc1ccc2ccccc2c1)C(=O)O` [Compound 36]: the “enzyme inhibition EC 3.4.24.15 pIC50” value in data set [1] amounted to 8.9. Also, at Neurolysine EC 3.4.24.16, the “enzyme inhibition EC 3.4.24.16 pIC50” value is more than 7.5. The relative stability stood at 100% in data set [2] (setting [5]); 101% in data set [2] (Time 3 hr, relative to 0 hour); 103% in data set [2] (Time 72 hr, relative to 0 hour); 100% in data set [2] (setting [6]). In data set [2], the “stability on storage (in words)” value is listed as “remained stable”.

With `CCCC[C@H](NC(=O)[C@@H]1CCCN1C(=O)CCP(=O)(O)CCc1ccccc1)C(=O)O` [N-[1-[3-[hydroxyl-(2-phenyl-ethyl)phosphinyl]1-oxopropyl]-L-prolyl]-L-norleucine], the “inhibition of Corynebacterium rathayii collagenase” value in data set [3] is listed as “potent inhibitor”.

On to `CC[C@H](C)[C@H](NC(=O)[C@@H]1CCCN1)C(=O)O` [Pro-IIe] (H-Pro-Ile-OH), for which the pKi on endopeptidase 24.16 was 4.05. Further, the “inhibition of endopeptidase 24.15” value at endopeptidase 24.15 is “does not inhibit”.

In the case of `CCCC[C@H](NC(=O)[C@@H]1CCCN1C(=O)CNP(=O)(O)CCc1ccc2ccccc2c1)C(=O)O` [phosphodiepril, reference compound], the relative stability amounted to 100% in data set [2] (setting [5]); 92% in data set [2] (Time 3 hr, relative to 0 hour); 87% in data set [2] (Time 72 hr, relative to 0 hour); 82% in data set [2] (setting [6]). The “stability on storage (in words)” value in data set [2] is “gradually degraded”. In data set [4], the “outcome of in vivo experiments” value is “negative results”.
